The values below come from publication PMC3665241, “Scaffold-Focused Virtual Screening: Prospective Application to the Discovery of TTK Inhibitors” (Journal of Chemical Information and Modeling, 2013).

In test [1] the target is T1, GST-tagged recombinant human full-length TTK protein kinase (Homo sapiens, UniProt P33981).
T1 construct: GST-tagged recombinant human full-length TTK protein kinase; purchased Invitrogen (Life Technologies Ltd., Paisley, U.K.)
T1 sequence (P33981 1-857): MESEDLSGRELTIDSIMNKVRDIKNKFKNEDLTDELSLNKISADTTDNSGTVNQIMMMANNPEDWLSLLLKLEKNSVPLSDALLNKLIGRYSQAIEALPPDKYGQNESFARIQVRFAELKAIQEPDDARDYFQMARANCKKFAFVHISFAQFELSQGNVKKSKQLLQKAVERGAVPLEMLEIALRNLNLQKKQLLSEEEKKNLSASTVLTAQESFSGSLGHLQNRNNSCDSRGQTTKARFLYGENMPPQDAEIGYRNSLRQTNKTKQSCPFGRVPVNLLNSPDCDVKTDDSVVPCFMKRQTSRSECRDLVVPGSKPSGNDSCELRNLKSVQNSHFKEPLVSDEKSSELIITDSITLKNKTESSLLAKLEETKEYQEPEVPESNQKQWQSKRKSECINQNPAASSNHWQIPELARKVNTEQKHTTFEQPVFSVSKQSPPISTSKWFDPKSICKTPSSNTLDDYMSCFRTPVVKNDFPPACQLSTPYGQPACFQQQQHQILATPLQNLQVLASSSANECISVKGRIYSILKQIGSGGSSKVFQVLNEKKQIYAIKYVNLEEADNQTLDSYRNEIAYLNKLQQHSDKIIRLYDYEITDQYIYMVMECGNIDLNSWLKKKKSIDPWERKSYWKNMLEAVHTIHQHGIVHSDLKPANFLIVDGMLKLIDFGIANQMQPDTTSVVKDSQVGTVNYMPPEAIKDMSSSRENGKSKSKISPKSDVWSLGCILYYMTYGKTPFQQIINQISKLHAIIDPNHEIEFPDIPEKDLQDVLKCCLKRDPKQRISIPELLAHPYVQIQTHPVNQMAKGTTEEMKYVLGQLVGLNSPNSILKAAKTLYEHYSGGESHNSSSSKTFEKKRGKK
The test can be described thus: TTK mobility shift microfluidics assay, IC50 determination (3 nM TTK). To be noted: for IC50: 3 nM TTK, 10 μM ATP, duplicate on the same plate; for LE (ligand efficiency): from TTK IC50. Format: biochemical.

Test [2] addresses T2, TTK kinase domain (residues 519–808) (Homo sapiens, UniProt P33981).
T2 construct: TTK kinase domain (residues 519–808); inferred from Ni-NTA purification with imidazole elution; made in house; host or cells: E. coli BL21 AI
T2 sequence (P33981 519-808): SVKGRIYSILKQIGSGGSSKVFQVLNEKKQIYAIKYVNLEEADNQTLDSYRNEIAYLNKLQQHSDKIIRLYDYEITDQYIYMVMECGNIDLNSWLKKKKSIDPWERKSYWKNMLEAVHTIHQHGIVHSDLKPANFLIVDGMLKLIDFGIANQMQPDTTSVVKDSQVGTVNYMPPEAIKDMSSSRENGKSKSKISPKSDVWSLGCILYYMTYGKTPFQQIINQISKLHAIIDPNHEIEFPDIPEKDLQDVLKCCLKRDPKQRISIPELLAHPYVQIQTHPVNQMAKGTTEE
The test can be described thus: Soaking of apo TTK kinase domain crystals with inhibitor, X-ray crystallography. Format: binding. To be noted: crystals soaked with 10–50 mM compound for 24 h. The text has this:
In recognition of the desirability of protein–ligand crystal structures to educate the efficient follow-up of fragment-like hit matter and our wish to determine the mode of binding of hits identified with the scaffold-focused virtual screen, we sought co-crystal structures of confirmed hits with TTK. To this end, apo crystals of TTK kinase domain were soaked in buffer solution containing the respective inhibitor (2–9). X-ray data were collected for all crystals, and the structures were solved using molecular replacement. We successfully obtained co-crystal structures of TTK with fragment-like hit compounds 3, 4, 5, and 7. […] A summary of crystallographic analysis is presented in Table 4, and the binding modes of compounds 3, 4, 5, and 7 are illustrated in Figure 7 with Fo–Fc electron density omit maps surrounding the ligand shown in green wire-mesh contoured at 3σ. In all four structures, the activation loop of TTK is disordered, possibly due to the presence of a PEG molecule bound to Lys553, a residue which would usually coordinate with Glu571 to help stabilize the activation loop (Lys553 is not shown in Figure 7 for clarity).
TTK was purified and crystallized as described previously.[26] Plasmids for expression of TTK were received from Stefan Knapp, Structural Genomics Consortium, Oxford, U.K. TTK kinase domain (residues 519–808) was expressed in E. coli BL21 AI competent cells (Invitrogen, Life Technologies Ltd., Paisley, U.K.). Cells were cultured in LB media containing kanamycin selection antibiotic and induced with 0.5 mM IPTG and 1g/L L-arabinose at an OD280 of 0.7. Cells were then incubated overnight at 18 °C with shaking at 225 rpm. Cells were harvested and resuspended in lysis buffer containing 50 mM HEPES pH 7.5, 500 mM NaCl, 10 mM imidazole, 5% (v/v) glycerol, lysozyme, and 1 Roche EDTA free complete protease inhibitor cocktail tablet (Roche, Basel, Switzerland) per 3 L of buffer. TTK was purified using Ni–NTA nickel affinity resin and washed in buffer containing 30 mM imidazole. TTK was then eluted from the resin with 250 mM imidazole. Eluate was concentrated using a Vivaspin concentrator with a 30 kDa molecular weight cutoff (GE Healthcare, Chalfont St. Giles, U.K.) and further purified on gel filtration column Superdex 200 16/60 (GE Healthcare, Chalfont St. Giles, U.K.) equilibrated in buffer containing 10 mM HEPES pH 7.5, 150 mM NaCl, 5 mM DTT, and 5 mM EDTA. The sample was concentrated to a final concentration of 8.9 mg/mL, snap frozen on dry ice, and stored at −80 °C until required.
Purified TTK was crystallized at 18 °C using the sitting drop vapor diffusion method with drops composed of 2 μL protein (8.9 mg/mL) and 2 μL reservoir solution placed over 200 μL reservoir solution of H2O/PEG300 (30–45% (v/v)) in 48 well plates. […]

Test [3] concerns the target T1, GST-tagged recombinant human full-length TTK protein kinase. The test can be described thus: TTK mobility shift microfluidics assay, single-concentration percent inhibition screen. The class given is biochemical. The conditions noted are these: 12.5 nM TTK, 10 μM ATP, mean of duplicate ± SD; for inhibition at 40 µM: compound at 40 μM, 1% DMSO; for inhibition at 400 µM: compound at 400 μM (fragment-like, MW < 300 Da). The procedure: The TTK kinase activity was measured in a mobility shift microfluidics assay with the Caliper LabChip EZReader II (Caliper Life Sciences, Hopkinton, MA, U.S.A.). For the initial percent inhibition compound screen, all compounds were tested at 40 μM, and fragment-like compounds (MW < 300 Da) were also tested at 400 μM. A 2.14 μM stock of GST-tagged recombinant human full-length TTK protein kinase from Invitrogen (Invitrogen, Life Technologies Ltd., Paisley, U.K.) and custom synthesized peptide from Pepceuticals (Pepceuticals Ltd., Enderby, U.K.) with sequence 5-FAM-[…]-amide were used. […] For every 10 mL of stock buffer, one Roche EDTA free complete mini-protease inhibitor cocktail tablet (Roche, Basel, Switzerland) was added. TTK was used at a final concentration of 12.5 nM. The assay plate was sealed and incubated at room temperature for 60 min. The assay was stopped by addition of stop buffer which contained 100 mM HEPES (pH 7.3), 20 mM EDTA, and 0.05% (v/v) Brij-35. The assay plate was then analyzed using the EZReader II. Z′ for compounds at 40 μM was 0.48, and Z′ for compounds at 400 μM was 0.61.

The term IC50 denotes the midpoint of a concentration-inhibition curve. Broadly, the inhibition is the percentage by which the read-out fell short of the control.

For the compound `Nc1nnc2c([nH]c3ccccc32)c1-c1ccccc1` [Compound 2], in test [1] (1% DMSO), the IC50 worked out at 53 µM. Besides, the “LE (ligand efficiency)” value in test [1] is on record as 0.29. In test [2], the “binding in ATP binding site of soaked TTK crystals (electron density)” value (“binding in ATP binding site” for short) is “not bound”. Besides, in test [3], the inhibition at 40 µM was 52 ± 1.41% and the inhibition at 400 µM worked out at 56 ± 1.41%.
The matching figures for `c1ccc(-c2nc3cnccc3[nH]2)nc1` [Compound 6]: 91.5 µM, 0.37, “not bound”, 21.5 ± 2.12% and 66%.
Take `COc1ccc2c(c1)[nH]c1c(C)nccc12` [Compound 8, harmine]: the IC50 in test [1] (1% DMSO) was 160 µM. Besides, the “LE (ligand efficiency)” value in test [1] stood at 0.32. Further, the “binding in ATP binding site” value in test [2] was “not bound”. For the same compound, in test [3], the inhibition at 40 µM was 19% and the inhibition at 400 µM came to 65 ± 1.41%.
For `Cc1ccc2[nH]c3c(N4CCCCC4)ncnc3c2c1` [Compound 9], the IC50 in test [1] (10% DMSO (asterisk)) was 246 µM. In test [1], the “LE (ligand efficiency)” value came out at 0.25. Also, the “binding in ATP binding site” value in test [2] is listed as “not bound”. In test [3], the inhibition at 40 µM worked out at 68 ± 1.41% and the inhibition at 400 µM was 55.5 ± 2.12%.
On to `COc1ccc(Nc2cc(C)nc3ncnn23)cc1OC` [Compound 24], for which the IC50 in test [1] (1% DMSO) is over 1000 µM. Moreover, in test [3], the inhibition at 40 µM worked out at 52% and the inhibition at 400 µM was 34.5 ± 0.71%.
